Active and inactive are the calls of the source. The calls are words filed in the database; no cut-off is given here.
Key:
Reticulitermes flavipes [1] = test: Termiticidal activity against Reticulitermes flavipes assessed as mortality at 0.06 ug/g after 7 days by forced exposure test; format: functional
Reticulitermes flavipes [2] = test: Termiticidal activity against Reticulitermes flavipes assessed as mortality at 0.6 ug/g after 3 days by forced exposure test; format: functional
Reticulitermes flavipes [3] = test: Termiticidal activity against Reticulitermes flavipes assessed as mortality after 4 days by forced exposure test; format: functional
Reticulitermes flavipes [4] = test: Termiticidal activity against Reticulitermes flavipes assessed as mortality at 6.9 ug/g after 7 days by forced exposure test; format: functional
Reticulitermes flavipes [5] = test: Termiticidal activity against Reticulitermes flavipes at 0.69 ug/g after 7 days by forced exposure test; format: functional, organism-based
Reticulitermes flavipes [6] = test: Termiticidal activity against Reticulitermes flavipes after 3 days by forced exposure test; format: functional
Reticulitermes flavipes [7] = test: Termiticidal activity against Reticulitermes flavipes assessed as mortality at 0.6 ug/g after 10 months by forced exposure test; format: functional
Reticulitermes flavipes [8] = test: Termiticidal activity against Reticulitermes flavipes after 7 days by forced exposure test; format: functional, organism-based
Reticulitermes flavipes [9] = test: Termiticidal activity against Reticulitermes flavipes assessed as mortality at 0.6 ug/g after 5 months by forced exposure test; format: functional
Reticulitermes flavipes [10] = test: Termiticidal activity against Reticulitermes flavipes assessed as mortality at 0.6 ug/g by forced exposure test; format: functional

N#Cc1nn(-c2c(Cl)cc(C(F)(F)F)cc2Cl)c(N)c1[S+]([O-])C(F)(F)F (configuration not stated) [FIPRONIL]
mortality (Reticulitermes flavipes [1]): 100%
mortality (Reticulitermes flavipes [2]): 100%
LC50 (Reticulitermes flavipes [3]): 0.49 µg/g

O=[N+]([O-])/N=C1\NCCN1Cc1ccc(Cl)nc1 [IMIDACLOPRID]
mortality (Reticulitermes flavipes [4]): 80%
Activity (Reticulitermes flavipes [5]): inactive
Activity (Reticulitermes flavipes [6]): inactive

Cc1c(COC(=O)[C@@H]2[C@H](/C=C(\Cl)C(F)(F)F)C2(C)C)cccc1-c1ccccc1 [BIFENTHRIN]
mortality (Reticulitermes flavipes [7]): 73.9%
Activity (Reticulitermes flavipes [8]): inactive
mortality (Reticulitermes flavipes [9]): 63%
LC50 (Reticulitermes flavipes [6]): 0.074 µg/g
LC95 (Reticulitermes flavipes [6]): 0.724 µg/g
mortality (Reticulitermes flavipes [10]): 100%
